Where two headings read alike, the source gives them in different places.
Type: physicochemical
Protocol: Maintaining the solution at low temperature and buffering the drug can control degradation kinetics of aqueous solutions but the stability achieved is not sufficient to render the product stable during its entire proposed shelf life. A dry solid formulation of decitabine which is stable was achieved by lyophilization of an aqueous solution. The process of lyophilization to obtain a solid form is considered essential for maximizing the stability of the product.
A bulk solution of 5 mg/mL of decitabine was prepared during compounding. To minimize degradation during compounding of the bulk solution prior to lyophilization, the bulk solution was maintained at low temperature, and the time the drug remains in solution prior to lyophilization was minimized. Maximum solution stability was achieved by dissolving the drug in a pH 6.8-7.0 phosphate buffer solution at 0-4° C.
Based on the results, appropriate recommendations for the preparation and storage of the reconstituted and diluted solutions can be made to pharmacists and clinical practitioners. The product was reconstituted in 10 mL WFI and diluted with one of the three pre-chilled infusion fluids indicated in Table 1 and Table 2 to two different concentrations, 0.1 mg/mL and 1 mg/mL covering the entire concentration range expected to be used in the clinical setting. The diluted solutions were stored for one to ten hours in infusion bags in the refrigerator at 2-8° C. to simulate conditions prior to infusion and then removed and placed at room temperature to simulate conditions during infusion. Bags placed in the refrigerator for one hour were removed and placed at room temperature and sampled thereafter for the next three hours at room temperature (Experiment No. 1) while the bags placed in the refrigerator for ten hours were removed and sampled for the next two hours at room temperature (Experiment No. 2).
The method used to estimate degradation products is based on percent peak area measurements assuming the degradation products have a response factor of 1, with respect to decitabine.
Table 1 and Table 2 also show the pH data obtained after the preparation of the infusion, which is consistently within ±0.3 pH units of neutral pH.

[1] = 0.1 mg/mL in 0.9% NaCl, Experiment 1 (2-8° C. one hour, then room temperature), at 0 h
[2] = 0.1 mg/mL in 0.9% NaCl, Experiment 1 (2-8° C. one hour, then room temperature), at 1 h
[3] = 0.1 mg/mL in 0.9% NaCl, Experiment 1 (2-8° C. one hour, then room temperature), at 2 h
[4] = 0.1 mg/mL in 0.9% NaCl, Experiment 1 (2-8° C. one hour, then room temperature), at 3 h
[5] = 0.1 mg/mL in 0.9% NaCl, Experiment 1 (2-8° C. one hour, then room temperature), at 4 h
[6] = 0.1 mg/mL in 0.9% NaCl, Experiment 2 (2-8° C. ten hours, then room temperature), at 0 h
[7] = 0.1 mg/mL in 0.9% NaCl, Experiment 2 (2-8° C. ten hours, then room temperature), at 10 h
[8] = 0.1 mg/mL in 0.9% NaCl, Experiment 2 (2-8° C. ten hours, then room temperature), at 11 h
[9] = 0.1 mg/mL in 0.9% NaCl, Experiment 2 (2-8° C. ten hours, then room temperature), at 12 h
[10] = 0.1 mg/mL in 5% Dextrose, Experiment 1 (2-8° C. one hour, then room temperature), at 0 h
[11] = 0.1 mg/mL in 5% Dextrose, Experiment 1 (2-8° C. one hour, then room temperature), at 1 h
[12] = 0.1 mg/mL in 5% Dextrose, Experiment 1 (2-8° C. one hour, then room temperature), at 2 h
[13] = 0.1 mg/mL in 5% Dextrose, Experiment 1 (2-8° C. one hour, then room temperature), at 3 h
[14] = 0.1 mg/mL in 5% Dextrose, Experiment 1 (2-8° C. one hour, then room temperature), at 4 h
[15] = 0.1 mg/mL in 5% Dextrose, Experiment 2 (2-8° C. ten hours, then room temperature), at 0 h
[16] = 0.1 mg/mL in 5% Dextrose, Experiment 2 (2-8° C. ten hours, then room temperature), at 10 h
[17] = 0.1 mg/mL in 5% Dextrose, Experiment 2 (2-8° C. ten hours, then room temperature), at 11 h
[18] = 0.1 mg/mL in 5% Dextrose, Experiment 2 (2-8° C. ten hours, then room temperature), at 12 h
[19] = 0.1 mg/mL in Lactated Ringer's, Experiment 1 (2-8° C. one hour, then room temperature), at 0 h
[20] = 0.1 mg/mL in Lactated Ringer's, Experiment 1 (2-8° C. one hour, then room temperature), at 1 h
[21] = 0.1 mg/mL in Lactated Ringer's, Experiment 1 (2-8° C. one hour, then room temperature), at 2 h
[22] = 0.1 mg/mL in Lactated Ringer's, Experiment 1 (2-8° C. one hour, then room temperature), at 3 h
[23] = 0.1 mg/mL in Lactated Ringer's, Experiment 1 (2-8° C. one hour, then room temperature), at 4 h
[24] = 0.1 mg/mL in Lactated Ringer's, Experiment 2 (2-8° C. ten hours, then room temperature), at 0 h
[25] = 0.1 mg/mL in Lactated Ringer's, Experiment 2 (2-8° C. ten hours, then room temperature), at 10 h
[26] = 0.1 mg/mL in Lactated Ringer's, Experiment 2 (2-8° C. ten hours, then room temperature), at 11 h
[27] = 0.1 mg/mL in Lactated Ringer's, Experiment 2 (2-8° C. ten hours, then room temperature), at 12 h
[28] = about 1.0 mg/mL in 0.9% NaCl, Experiment 1 (2-8° C. one hour, then room temperature), at 0 h
[29] = about 1.0 mg/mL in 0.9% NaCl, Experiment 1 (2-8° C. one hour, then room temperature), at 1 h
[30] = about 1.0 mg/mL in 0.9% NaCl, Experiment 1 (2-8° C. one hour, then room temperature), at 2 h
[31] = about 1.0 mg/mL in 0.9% NaCl, Experiment 1 (2-8° C. one hour, then room temperature), at 3 h
[32] = about 1.0 mg/mL in 0.9% NaCl, Experiment 1 (2-8° C. one hour, then room temperature), at 4 h
[33] = about 1.0 mg/mL in 0.9% NaCl, Experiment 2 (2-8° C. ten hours, then room temperature), at 0 h
[34] = about 1.0 mg/mL in 0.9% NaCl, Experiment 2 (2-8° C. ten hours, then room temperature), at 10 h
[35] = about 1.0 mg/mL in 0.9% NaCl, Experiment 2 (2-8° C. ten hours, then room temperature), at 11 h
[36] = about 1.0 mg/mL in 0.9% NaCl, Experiment 2 (2-8° C. ten hours, then room temperature), at 12 h
[37] = about 1.0 mg/mL in 5% Dextrose, Experiment 1 (2-8° C. one hour, then room temperature), at 0 h
[38] = about 1.0 mg/mL in 5% Dextrose, Experiment 1 (2-8° C. one hour, then room temperature), at 1 h
[39] = about 1.0 mg/mL in 5% Dextrose, Experiment 1 (2-8° C. one hour, then room temperature), at 2 h
[40] = about 1.0 mg/mL in 5% Dextrose, Experiment 1 (2-8° C. one hour, then room temperature), at 3 h
[41] = about 1.0 mg/mL in 5% Dextrose, Experiment 1 (2-8° C. one hour, then room temperature), at 4 h
[42] = about 1.0 mg/mL in 5% Dextrose, Experiment 2 (2-8° C. ten hours, then room temperature), at 0 h
[43] = about 1.0 mg/mL in 5% Dextrose, Experiment 2 (2-8° C. ten hours, then room temperature), at 10 h
[44] = about 1.0 mg/mL in 5% Dextrose, Experiment 2 (2-8° C. ten hours, then room temperature), at 11 h
[45] = about 1.0 mg/mL in 5% Dextrose, Experiment 2 (2-8° C. ten hours, then room temperature), at 12 h
[46] = about 1.0 mg/mL in Lactated Ringer's, Experiment 1 (2-8° C. one hour, then room temperature), at 0 h
[47] = about 1.0 mg/mL in Lactated Ringer's, Experiment 1 (2-8° C. one hour, then room temperature), at 1 h
[48] = about 1.0 mg/mL in Lactated Ringer's, Experiment 1 (2-8° C. one hour, then room temperature), at 2 h
[49] = about 1.0 mg/mL in Lactated Ringer's, Experiment 1 (2-8° C. one hour, then room temperature), at 3 h
[50] = about 1.0 mg/mL in Lactated Ringer's, Experiment 1 (2-8° C. one hour, then room temperature), at 4 h
[51] = about 1.0 mg/mL in Lactated Ringer's, Experiment 2 (2-8° C. ten hours, then room temperature), at 0 h
[52] = about 1.0 mg/mL in Lactated Ringer's, Experiment 2 (2-8° C. ten hours, then room temperature), at 10 h
[53] = about 1.0 mg/mL in Lactated Ringer's, Experiment 2 (2-8° C. ten hours, then room temperature), at 11 h
[54] = about 1.0 mg/mL in Lactated Ringer's, Experiment 2 (2-8° C. ten hours, then room temperature), at 12 h

degradation in aqueous solution: degrades rapidly | pH after the preparation of the infusion (0.1 mg/mL in 0.9% NaCl): 6.7 | Decitabine Content [1]: 97.5% | Total Impurities [1]: (2.5%) | Decitabine Content [2]: 96.9% | Total Impurities [2]: (3.2%) | Decitabine Content [3]: 95.7% | Total Impurities [3]: (4.3%) | Decitabine Content [4]: 94.1% | Total Impurities [4]: (6.0%) | Decitabine Content [5]: 92.5% | Total Impurities [5]: (7.7%) | Decitabine Content [6]: 97.8% | Total Impurities [6]: (2.2%) | Decitabine Content [7]: 93.4% | Total Impurities [7]: (6.7%) | Decitabine Content [8]: 92.3% | Total Impurities [8]: (7.7%) | Decitabine Content [9]: 90.8% | Total Impurities [9]: (9.2%) | pH after the preparation of the infusion (0.1 mg/mL in 5% Dextrose): 6.9 | Decitabine Content [10]: 97.4% | Total Impurities [10]: (2.6%) | Decitabine Content [11]: 97.2% | Total Impurities [11]: (2.7%) | Decitabine Content [12]: 96.4% | Total Impurities [12]: (3.6%) | Decitabine Content [13]: 94.9% | Total Impurities [13]: (5.1%) | Decitabine Content [14]: 93.6% | Total Impurities [14]: (6.4%) | Decitabine Content [15]: 98.2% | Total Impurities [15]: (1.9%) | Decitabine Content [16]: 94.9% | Total Impurities [16]: (5.2%) | Decitabine Content [17]: 94.5% | Total Impurities [17]: (5.6%) | Decitabine Content [18]: 93.3% | Total Impurities [18]: (6.7%) | pH after the preparation of the infusion (0.1 mg/mL in Lactated Ringer's): 6.7 | Decitabine Content [19]: 98.3% | Total Impurities [19]: (1.7%) | Decitabine Content [20]: 98.1% | Total Impurities [20]: (1.9%) | Decitabine Content [21]: 97.0% | Total Impurities [21]: (3.0%) | Decitabine Content [22]: 95.9% | Total Impurities [22]: (4.1%) | Decitabine Content [23]: 94.9% | Total Impurities [23]: (5.2%) | Decitabine Content [24]: 98.0% | Total Impurities [24]: (2.1%) | Decitabine Content [25]: 93.4% | Total Impurities [25]: (6.7%) | Decitabine Content [26]: 92.6% | Total Impurities [26]: (7.4%) | Decitabine Content [27]: 91.8% | Total Impurities [27]: (8.3%) | pH of maximum solution stability (5 mg/mL): 6.8-7.0 | pH deviation from neutral pH after the preparation of the infusion (Table 1 and Table 2 solutions): ≤ 0.3 pH units | pH after the preparation of the infusion (about 1.0 mg/mL in 0.9% NaCl): 6.7 | Decitabine Content [28]: 98.0% | Total Impurities [28]: (2.1%) | Decitabine Content [29]: 96.8% | Total Impurities [29]: (3.3%) | Decitabine Content [30]: 94.8% | Total Impurities [30]: (5.2%) | Decitabine Content [31]: 92.8% | Total Impurities [31]: (7.3%) | Decitabine Content [32]: 91.1% | Total Impurities [32]: (9.0%) | Decitabine Content [33]: 97.4% | Total Impurities [33]: (2.7%) | Decitabine Content [34]: 93.4% | Total Impurities [34]: (6.7%) | Decitabine Content [35]: 92.5% | Total Impurities [35]: (7.6%) | Decitabine Content [36]: 90.8% | Total Impurities [36]: (9.2%) | pH after the preparation of the infusion (about 1.0 mg/mL in 5% Dextrose): 7.1 | Decitabine Content [37]: 98.0% | Total Impurities [37]: (2.0%) | Decitabine Content [38]: 97.0% | Total Impurities [38]: (3.1%) | Decitabine Content [39]: 95.6% | Total Impurities [39]: (4.4%) | Decitabine Content [40]: 93.7% | Total Impurities [40]: (6.4%) | Decitabine Content [41]: 91.9% | Total Impurities [41]: (8.1%) | Decitabine Content [42]: 97.7% | Total Impurities [42]: (2.4%) | Decitabine Content [43]: 94.5% | Total Impurities [43]: (5.5%) | Decitabine Content [44]: 93.9% | Total Impurities [44]: (6.1%) | Decitabine Content [45]: 93.0% | Total Impurities [45]: (7.1%) | pH after the preparation of the infusion (about 1.0 mg/mL in Lactated Ringer's): 6.8 | Decitabine Content [46]: 98.1% | Total Impurities [46]: (2.0%) | Decitabine Content [47]: 97.3% | Total Impurities [47]: (2.7%) | Decitabine Content [48]: 96.2% | Total Impurities [48]: (3.8%) | Decitabine Content [49]: 95.1% | Total Impurities [49]: (4.9%) | Decitabine Content [50]: 93.7% | Total Impurities [50]: (6.4%) | Decitabine Content [51]: 98.0% | Total Impurities [51]: (2.1%) | Decitabine Content [52]: 94.1% | Total Impurities [52]: (5.9%) | Decitabine Content [53]: 93.3% | Total Impurities [53]: (6.8%) | Decitabine Content [54]: 91.8% | Total Impurities [54]: (8.2%) | visual inspection of solutions (all reconstituted and diluted solutions): clear and colorless | drug content in the infusion solution during infusion (infusions prepared and stored as instructed): above 90%
Structure (SMILES): Nc1ncn([C@H]2C[C@H](O)[C@@H](CO)O2)c(=O)n1 [Decitabine, 4-amino-1-(2-deoxy-β-D-erythro-pentofuranosyl)-1,3,5-triazin-2(1H)-one]

From patent US20070117776A1, “Low Dose Therapy Of DNA Methylation Inhibitors” (priority 2005, published 2007)
